# Test results: US9765115B2, “Inhibitors of metastasis, methods of generating such inhibitors and their therapeutic applications” (Board of Supervisors of Louisiana State University acting …, priority 2011, dated 2017)
# Tests used:
# Type in all cases: cell-based
# PC-3-CTR-wt cells = experiment: Matrigel in vitro invasion assay; settings: 50 nM CT, 48 h
# Procedure: (§1) Invasion experiments were conducted in Matrigel™ invasion chambers as previously described (Sabbisetti et al., 2005).
# (§2) CT increases invasiveness, and even induces an invasive phenotype in non-invasive prostate cancer cells. The role of PDZ-binding motif in CT-stimulated invasion was examined. FIG. 2C depicts CTR-C PDZ-binding motif mutation and effects on cell invasion. PC-3V, PC-3 CTRwt and PC-3 CTRΔESS cells were added to upper insert of invasion chambers with or without 50 nM CT, and cells that passed through the Matrigel™ barrier were counted after 48 h. The results are expressed as mean number of invaded cells per 400× field ±SEM (n=6; *p<0.05 (PC-3V v PC-3CTR-wt); $ p<0.05 (PC-3CTR-wt v PC-3CTRΔESS); $$-p<0.05 (PC-3CTRwt+CT v PC-3CTRΔESS+CT) (one-way ANOVA and Newman-Keul's test)). Expression of CTRwt in PC-3 cells increased invasion by 2.5-fold (FIG. 2C).
# As shown above, CTR binds to ZO-1 through PDZ interaction (i.e. PDZ ligand on C-tail of CTR binds to the PDZ domain of ZO-1). To attenuate this binding, ZO-1 was saturated with a small C-terminal peptide of CTR sequence containing the PDZ-binding motif. Since ZO-1 is an intracellular membrane protein, the interfering peptide was delivered inside the plasma membrane. It has been shown that trans-activating transcriptional activator (TAT) protein (86-mer polypeptide) from HIV-1 enters mammalian cells when added to the surrounding media (Frankel et al., 1988; Green et al., 1989). Certain small regions of such proteins (10-16-mers) called protein transduction domains (PTDs), also efficiently traverse biological membranes (Elliott et al., 1997). Therefore, a fusion peptide Pep 1 was synthesized of TAT-peptide sequences of HIV virus and CTR-C(N-[…]-C (SEQ ID NO:2), CTR-C sequence underlined). The first experiment was to see if Pep I binds to ZO-1 in reversible fashion. For this, amino acid Y in Pep I was labeled with ^125I, and the binding with ZO-1 analyzed in the presence/absence of unlabeled Pep I (1000×; 20 μM). PC-3CTR-ZO-1-MYC cells were first incubated with unlabeled Pep I or control peptide (20 μM) for 5 min. The cells were then incubated with ^125I-pep I or C for 25 min. The cells were then washed in IP buffer, treated with DSP, and lysed. ZO-1 IPs were obtained, fractionated on SDS-PAGE, and autoradiographed. […] Next, whether Pep I competes with CTR for ZO-1 binding was tested. For this, PC-3-CTR-wt cells were treated with CT (50 nM) and or Pep I (50 μM) for 15 min. The CTR IPs were then immunoblotted and probed for ZO-1 immunoreactivity. […] Next, the biological impact of this phenomenon was examined by testing the effect of Pep I on CTR-stimulated invasion.
# The binding of ZO-1 and CTR can be attenuated by saturating ZO-1 with a small C-terminal peptide of CTR sequence containing the PDZ ligand. Since ZO-1 is an intracellular membrane protein, the interfering peptide must penetrate plasma membrane to interact with ZO-1. As discussed above, fusion peptides of small TAT peptides (12-mer) and six (Pep I) or eight amino acids (Pep II) of C-terminal of CTR were synthesized. Control peptides were TAT peptides (12-mer) containing random amino acid sequence of equivalent size (6-mer). […] Thus, these two peptides (sequences given below) could be used therapeutically to attenuate or inhibit metastasis in cancerous cells.
# PC-3CTRΔESS cells = experiment: Matrigel in vitro invasion assay; settings: 50 nM CT, 48 h
# Procedure: as §1, §2
# [1] = tested on: TCF/LEF promoter activity in PC-3 cells; experiment: TCF/LEF luciferase reporter assay (pGL3-OT/pGL3-OF); settings: 50 nM CT
# Procedure: FIG. 28 depicts effect of CT on TCF/LEF promoter activity in PC-3 cells with various compounds added with CT. Cells were seeded into 6-well plates and transfected with the pGL3-OT luciferase/pRL-tK plasmids or pGL3-OF-luciferase/pRL-TK plasmids. The cells were then incubated in complete medium for 48 h, after which they were serum-starved for 16 h. The cells were then treated with CT and/or PMH compounds, and the cell lysates analyzed for luciferase activity. The results are expressed as relative light units (RLU) after normalization with Renilla luciferase activity. The experiment was repeated three separate times, and results expressed as means±S.E.M.
# Certain hydantoin-like molecules isolated from sea sponge have been identified that could inhibit prostate cell metastasis (Shah et al., 2009; Mudit et al., 2011). Disruption of junctional complex stabilizes intracellular β-catenin, leading to its translocation in the nucleus, where it can bind to its partner LEF-1 (lymphocyte enhancer binding factor-1) to transactivate target genes. The transcription of TCF/LEF genes can be quantitated by using luciferase-based reporter plasmids, pGL3-OT and pGL3-OF, the improved version of the Topflash and Fopflash vectors (Shah et al., 2009). This assay can be used to comparatively evaluate junction disrupting activity of multiple compounds in a single assay. […] The two compounds, MRM-6 and MRM-4, derivatives of PMH whose structures are shown below, were obtained from Dr. K. A. El Sayed.
substance,measurement,setting,value
calcitonin [CT],additional increase in invasion,PC-3-CTR-wt cells,2.5 fold
same,increase in invasion,PC-3CTRΔESS cells,did not
same,increase in luciferase activity (RLU),[1],over 50 fold
